Data as given in ChEMBL document CHEMBL6182913, “Design of Potent Small-Molecule Stimulator of Interferon Gene Inhibitor and Stimulator of Interferon Gene Mutant-Specific Degrader” (J Med Chem, 2025).
The source made the active and inactive calls. No cut-off for these calls is given here.

What was measured:
[1] = molecular target: T1, Stimulator of interferon genes protein (Mus musculus) (UniProt Q3TBT3); experiment: Inhibition of STING in mouse BMDM cells assessed as inhibition of cGAMP-induced IFN-beta release at 0.05 to 0.5 uM pretreated with compound for 6 hrs followed by cGAMP addition and measured after 18 hrs by ELISA; format: cell-based; details: dose 0.05-0.5 µM, time 24.0 hrs
T1 sequence (whole entry): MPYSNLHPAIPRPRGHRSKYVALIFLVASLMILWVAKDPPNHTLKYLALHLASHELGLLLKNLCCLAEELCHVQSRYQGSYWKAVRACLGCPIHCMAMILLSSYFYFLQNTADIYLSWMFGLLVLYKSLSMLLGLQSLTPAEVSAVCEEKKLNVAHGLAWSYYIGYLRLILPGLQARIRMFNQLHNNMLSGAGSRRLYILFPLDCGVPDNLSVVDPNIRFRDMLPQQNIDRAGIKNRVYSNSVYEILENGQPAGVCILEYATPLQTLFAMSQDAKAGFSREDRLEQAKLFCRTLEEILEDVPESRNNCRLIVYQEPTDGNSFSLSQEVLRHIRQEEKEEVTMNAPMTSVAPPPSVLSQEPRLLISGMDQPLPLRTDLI

[2] = molecular target: T2, Stimulator of interferon genes protein (Mus musculus, UniProt Q3TBT3); experiment: Inhibition of cGAMP-induced mouse STING transfected in human THP-1 cells preincubated with compound for 6 hrs followed by cGAMP addition and measured after 18 hrs by QUANTI-Luc based microplate reader analysis; format: cell-based
T2 sequence (Q3TBT3 whole entry): T1 sequence (whole entry)

[3] = Metabolic stability in mouse liver microsomes assessed as half life at 10 uM in presence of NADPH by LC-MS/MS analysis; format: ADME, Microsome
[4] = molecular target: T1, Stimulator of interferon genes protein (Mus musculus); experiment: Inhibition of STING in mouse BMDM cells assessed as inhibition of poly(I:C) -induced IFN-beta release at 0.05 to 0.5 uM pretreated with compound for 6 hrs followed by poly(I:C) addition and measured after 18 hrs by ELISA; format: cell-based; details: dose 0.05-0.5 µM, time 24.0 hrs
[5] = molecular target: T1, Stimulator of interferon genes protein (Mus musculus); experiment: In vivo inhibition of cGAMP-induced STING activation in autoimmune disease female C57BL/6 mouse model assessed as decrease in cGAMP-induced serum CXCL-10 level at 20 mg/kg, po pretreated with compound for 2 hrs followed by cGAMP addition and measured after 3 hrs by ELISA; format: functional, organism-based
[6] = molecular target: T3, Stimulator of interferon genes protein (Homo sapiens, UniProt Q86WV6); experiment: Inhibition of STING in human THP-1 cells assessed as inhibition of cGAMP-induced IFN-beta release at 0.05 to 0.5 uM pretreated with compound for 6 hrs followed by cGAMP addition and measured after 18 hrs by ELISA; format: cell-based; details: dose 0.05-0.5 µM, time 24.0 hrs
T3 sequence (Q86WV6 whole entry): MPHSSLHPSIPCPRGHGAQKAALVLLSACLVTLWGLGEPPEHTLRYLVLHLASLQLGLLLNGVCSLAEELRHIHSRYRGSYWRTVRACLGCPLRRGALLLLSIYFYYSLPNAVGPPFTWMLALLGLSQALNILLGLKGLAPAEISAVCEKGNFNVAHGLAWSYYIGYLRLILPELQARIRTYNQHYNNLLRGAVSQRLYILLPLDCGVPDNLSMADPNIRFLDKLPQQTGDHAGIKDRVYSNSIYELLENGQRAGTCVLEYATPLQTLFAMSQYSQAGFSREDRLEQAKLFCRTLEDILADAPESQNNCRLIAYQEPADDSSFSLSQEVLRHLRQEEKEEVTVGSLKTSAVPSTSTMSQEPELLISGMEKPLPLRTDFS

[7] = molecular target: T1, Stimulator of interferon genes protein (Mus musculus); experiment: Inhibition of STING in mouse BMDM cells assessed as inhibition of ODN 2395-induced IFN-beta release at 0.05 to 0.5 uM pretreated with compound for 6 hrs followed by ODN 2395 addition and measured after 18 hrs by ELISA; format: cell-based; details: dose 0.05-0.5 µM, time 24.0 hrs
[8] = molecular target: T3, Stimulator of interferon genes protein; experiment: Inhibition of STING activation in human THP1-Blue ISG cells assessed as decrease in cGAMP-induced IRF3 phosphorylation at 0.1 to 1 uM preincubated with compound for 6 hrs followed by cGAMP addition and measured after 3 hrs by Western blotting analysis; format: cell-based; details: dose 0.1-1 µM, time 9.0 hrs
[9] = system: Stimulator of interferon genes protein (Homo sapiens), Q86WV6 [UNDEFINED MUTATION]; experiment: Induction of STING M155 mutant degradation in human THP-1 cells at 1 uM incubated for 48 hrs by Western blotting analysis; format: cell-based
Stimulator of interferon genes protein (Homo sapiens), Q86WV6 [UNDEFINED MUTATION], sequence (Q86WV6 whole entry, looked up, change not shown): as the sequence (Q86WV6 whole entry) above

[10] = Metabolic stability in mouse plasma assessed as half life in presence of NADPH by LC-MS/MS analysis; format: ADME, cell-free
[11] = molecular target: T1, Stimulator of interferon genes protein (Mus musculus); experiment: Inhibition of STING in mouse BMDM cells assessed as inhibition of LPS-induced IFN-beta release at 0.05 to 0.5 uM pretreated with compound for 6 hrs followed by LPS addition and measured after 18 hrs by ELISA; format: cell-based; details: dose 0.05-0.5 µM, time 24.0 hrs
[12] = molecular target: T1, Stimulator of interferon genes protein (Mus musculus); experiment: In vivo inhibition of cGAMP-induced STING activation in autoimmune disease female C57BL/6 mouse model assessed as decrease in cGAMP-induced serum CXCL-10 level at 10 mg/kg, sc pretreated with compound for 2 hrs followed by cGAMP addition and measured after 3 hrs by ELISA; format: functional, organism-based
[13] = molecular target: T1, Stimulator of interferon genes protein (Mus musculus); experiment: In vivo inhibition of cGAMP-induced STING activation in autoimmune disease female C57BL/6 mouse model assessed as decrease in cGAMP-induced serum INF-beta level at 20 mg/kg, po pretreated with compound for 2 hrs followed by cGAMP addition and measured after 3 hrs by ELISA; format: functional, organism-based

- inhibition [1]: Active
- IC50 [2]: 0.03 µM
- half-life at 10 µM [3]: > 1 h
- inhibition [4]: inactive
- inhibition [5]: Active
- inhibition [6]: Active
- inhibition [7]: inactive
- inhibition [8]: Active
- half-life [10]: > 4 h
- inhibition [11]: inactive
- inhibition [12]: Active
- inhibition [13]: Active
Structure (SMILES): COc1ccc2c(c1)C(=O)N(c1ccc(C(C)(C)C)c(F)c1)C(c1cc3cc(-c4ccc(C(=O)Nc5ccc(O)c(NS(C)(=O)=O)c5)cc4)ccc3o1)C2C(N)=O (stereo not drawn)
- Activity [9]: Active; Compound Showed Maximum Degradation
